US20100120050A1, “Biomarkers For Assessing Altherosclerotic Potential” (ENTELOS, INC., priority 2008, published 2010)
Like-named read-outs stand apart in the source and are kept apart here.

Legend:
[1] = clinical trials and post-marketing; cited from earlier work
hepatic genes (liver) = tested on: hepatic genes (liver)
Description: While the molecular target for PPARγ is not in the liver, it represents the effects of changes in metabolism of the whole animal, which impact liver lipoprotein production and clearance.
Male Sprague-Dawley (Crl:CD® (SD)(IGS)BR) rats (Charles River Laboratories, Portage, Mich.), weight matched, 7 to 8 weeks of age, were housed individually in hanging, stainless steel, wire-bottom cages in a temperature (66-77° F.), light (12-hour dark/light cycle) and humidity (30-70%) controlled room. Water and rodent diet were available ad libitum throughout the 5 day acclimatization period and during the 5 day treatment period. Housing and treatment of the animals were in accordance with regulations outlined in the USDA Animal Welfare Act (9 CFR Parts 1, 2 and 3).
Rats (three per group) were dosed daily at either a low or high dose. […] Animals were necropsied on days 0.25, 1, 3, and 5. Up to 13 tissues (e.g., liver, kidney, heart, bone marrow, blood, spleen, brain, intestine, glandular and nonglandular stomach, lung, muscle, and gonads) were collected for histopathological evaluation and microarray expression profiling on the Affymetrix Rat Whole Genome RG230 v2 platform. In addition, a clinical pathology panel consisting of 37 clinical chemistry and hematology parameters was generated from blood samples collected on days 3 and 5.
Gene expression profiling, data processing and quality control were performed using protocols recommended by. Briefly, liver samples from 3 rats were chosen at random from each treatment and control group for each timepoint for expression profile analysis on the Affymetrix Rat Whole Genome RG230 v2 microarray (Affymetrix, Santa Clara, Calif.). Log transformed signal data for all probes were array-wise normalized using the Affymetrix MASS algorithm. Expression log ratios of base 10 (log(10) ratios) were computed as the difference between the logs of the averaged normalized experimental signals and the averaged normalized time-matched vehicle control signals for each gene.

## CN(CCOc1ccc(CC2SC(=O)NC2=O)cc1)c1ccccn1 (stereo not shown) [rosiglitazone]
[1]
  risk of cardiovascular events: paradoxically increased risk of cardiovascular events
Hepatic genes (liver); rat liver, probe AA891362, Rn.92789, oral gavage, experiments of Table 3
  Average Log (10) Ratio: L-3-hydroxyacyl-Coenzyme A dehydrogenase, short chain: −0.205
Hepatic genes (liver); rat liver, probe AA899304, Rn.4054, oral gavage, experiments of Table 3
  Average Log (10) Ratio: acetyl-coenzyme A acetyltransferase 1: 0.546
Hepatic genes (liver); rat liver, probe AA945548, Rn.91296, oral gavage, experiments of Table 3
  Average Log (10) Ratio: transferrin: −0.376
Hepatic genes (liver); rat liver, probe AF286470, Rn.801, oral gavage, experiments of Table 3
  Average Log (10) Ratio: sterol regulatory element binding factor 1: −0.464
Hepatic genes (liver); rat liver, probe AI176576, Rn.6975, oral gavage, experiments of Table 3
  Average Log (10) Ratio: CCAAT/enhancer binding protein (C/EBP), delta: −0.407
Hepatic genes (liver); rat liver, probe AI179334, Rn.9486, oral gavage, experiments of Table 3
  Average Log (10) Ratio: fatty acid synthase: −0.182
Hepatic genes (liver); rat liver, probe AI385341, Rn.9753, oral gavage, experiments of Table 3
  Average Log (10) Ratio: peroxisome proliferator activated receptor alpha: 0.461
Hepatic genes (liver); rat liver, probe AI406700, Rn.9737, oral gavage, experiments of Table 3
  Average Log (10) Ratio: perilipin: 0.137
Hepatic genes (liver); rat liver, probe AI713204, Rn.40396, oral gavage, experiments of Table 3
  Average Log (10) Ratio: monoglyceride lipase: 0.439
Hepatic genes (liver); rat liver, probe AW526669, Rn.169550, oral gavage, experiments of Table 3
  Average Log (10) Ratio: phosphatidylinositol 3-kinase, C2 domain containing, gamma polypeptide: 0.692
Hepatic genes (liver); rat liver, probe AY081195, Rn.40396, oral gavage, experiments of Table 3
  Average Log (10) Ratio: monoglyceride lipase: 0.621
Hepatic genes (liver); rat liver, probe BE105603, Rn.4090, oral gavage, experiments of Table 3
  Average Log (10) Ratio: mitogen-activated protein kinase 8: −0.104
Hepatic genes (liver); rat liver, probe BF396857, Rn.46942, oral gavage, experiments of Table 3
  Average Log (10) Ratio: ELOVL family member 6, elongation of long chain fatty acids (yeast): 0.495
Hepatic genes (liver); rat liver, probe BF398848, Rn.801, oral gavage, experiments of Table 3
  Average Log (10) Ratio: sterol regulatory element binding factor 1: −0.461
Hepatic genes (liver); rat liver, probe BF407188, Rn.15135, oral gavage, experiments of Table 3
  Average Log (10) Ratio: RIKEN cDNA 1500016L11 (DBSS): −0.448
Hepatic genes (liver); rat liver, probe BG372713, Rn.40396, oral gavage, experiments of Table 3
  Average Log (10) Ratio: monoglyceride lipase: 0.551
Hepatic genes (liver); rat liver, probe BG376902, Rn.11094, oral gavage, experiments of Table 3
  Average Log (10) Ratio: Pyruvate carboxylase: −0.172
Hepatic genes (liver); rat liver, probe BG377636, Rn.98393, oral gavage, experiments of Table 3
  Average Log (10) Ratio: acetyl CoA transferase-like (DBSS): 0.519
Hepatic genes (liver); rat liver, probe BI278687, Rn.117434, oral gavage, experiments of Table 3
  Average Log (10) Ratio: phospholipid transfer protein (DBSS): −0.378
Hepatic genes (liver); rat liver, probe BI281656, Rn.39132, oral gavage, experiments of Table 3
  Average Log (10) Ratio: guanine nucleotide binding protein, alpha stimulating, olfactory type: 0.107
Hepatic genes (liver); rat liver, probe BI282488, Rn.3786, oral gavage, experiments of Table 3
  Average Log (10) Ratio: acetyl-Coenzyme A acyltransferase 2 (mitochondrial 3-oxoacyl-Coenzyme A thiolase): 0.679
Hepatic genes (liver); rat liver, probe BI288209, Rn.44456, oral gavage, experiments of Table 3
  Average Log (10) Ratio: glycerol-3-phosphate acyltransferase, mitochondrial: −0.183
Hepatic genes (liver); rat liver, probe BI292438, Rn.79322, oral gavage, experiments of Table 3
  Average Log (10) Ratio: elongation of very long chain fatty acids (FEN1/Elo2, SUR4/Elo3, yeast)-like 3 (DBSS): −0.042
Hepatic genes (liver); rat liver, probe BI850137, Rn.83595, oral gavage, experiments of Table 3
  Average Log (10) Ratio: NCI_CGAP_Emb2 cDNA clone IMAGE: 4176354: −0.414
Hepatic genes (liver); rat liver, probe BM389330, Rn.18101, oral gavage, experiments of Table 3
  Average Log (10) Ratio: pyruvate dehydrogenase kinase, isoenzyme 3 (mapped): −0.646
Hepatic genes (liver); rat liver, probe BM390399, Rn.9437, oral gavage, experiments of Table 3
  Average Log (10) Ratio: 3-hydroxy-3-methylglutaryl-Coenzyme A reductase: 0.392
Hepatic genes (liver); rat liver, probe D14989, Rn.91378, oral gavage, experiments of Table 3
  Average Log (10) Ratio: sulfotransferase family 2A, dehydroepiandrosterone (DHEA)-preferring, member 1: 0.570
Hepatic genes (liver); rat liver, probe J02582, Rn.32351, oral gavage, experiments of Table 3
  Average Log (10) Ratio: apolipoprotein E: −0.324
Hepatic genes (liver); rat liver, probe J02585, Rn.1023, oral gavage, experiments of Table 3
  Average Log (10) Ratio: stearoyl-Coenzyme A desaturase 1: −0.668
Hepatic genes (liver); rat liver, probe M14952, Rn.33815, oral gavage, experiments of Table 3
  Average Log (10) Ratio: apolipoprotein B: −0.255
Hepatic genes (liver); rat liver, probe M15114, Rn.83595, oral gavage, experiments of Table 3
  Average Log (10) Ratio: NCI_CGAP_Emb2 cDNA clone IMAGE: 4176354: 0.409
Hepatic genes (liver); rat liver, probe M30596, Rn.161920, oral gavage, experiments of Table 3
  Average Log (10) Ratio: malic enzyme 1: 0.554
Hepatic genes (liver); rat liver, probe NM_012565, Rn.10447, oral gavage, experiments of Table 3
  Average Log (10) Ratio: glucokinase: −1.066
Hepatic genes (liver); rat liver, probe NM_012620, Rn.29367, oral gavage, experiments of Table 3
  Average Log (10) Ratio: serine (or cysteine) peptidase inhibitor, clade E, member 1: 0.819
Hepatic genes (liver); rat liver, probe NM_012701, Rn.87064, oral gavage, experiments of Table 3
  Average Log (10) Ratio: adrenergic receptor, beta 1: −0.177
Hepatic genes (liver); rat liver, probe NM_012735, Rn.91375, oral gavage, experiments of Table 3
  Average Log (10) Ratio: hexokinase 2: −0.330
Hepatic genes (liver); rat liver, probe NM_012769, Rn.87228, oral gavage, experiments of Table 3
  Average Log (10) Ratio: guanylate cyclase 1, soluble, beta 3: −0.348
Hepatic genes (liver); rat liver, probe NM_012770, Rn.10933, oral gavage, experiments of Table 3
  Average Log (10) Ratio: guanylate cyclase 1, soluble, beta 2: −0.465
Hepatic genes (liver); rat liver, probe NM_012806, Rn.9911, oral gavage, experiments of Table 3
  Average Log (10) Ratio: mitogen activated protein kinase 10: 0.458
Hepatic genes (liver); rat liver, probe NM_012930, Rn.11389, oral gavage, experiments of Table 3
  Average Log (10) Ratio: carnitine palmitoyltransferase 2: 0.494
Hepatic genes (liver); rat liver, probe NM_013134, Rn.9437, oral gavage, experiments of Table 3
  Average Log (10) Ratio: 3-hydroxy-3-methylglutaryl-Coenzyme A reductase: 0.389
Hepatic genes (liver); rat liver, probe NM_013174, Rn.7018, oral gavage, experiments of Table 3
  Average Log (10) Ratio: transforming growth factor, beta 3: −0.380
Hepatic genes (liver); rat liver, probe NM_013200, Rn.6028, oral gavage, experiments of Table 3
  Average Log (10) Ratio: carnitine palmitoyltransferase 1b, muscle: 0.984
Hepatic genes (liver); rat liver, probe NM_017222, Rn.85891, oral gavage, experiments of Table 3
  Average Log (10) Ratio: solute carrier family 10, member 2: −0.544
Hepatic genes (liver); rat liver, probe NM_017322, Rn.9910, oral gavage, experiments of Table 3
  Average Log (10) Ratio: mitogen-activated protein kinase 9: −0.348
Hepatic genes (liver); rat liver, probe NM_017340, Rn.31796, oral gavage, experiments of Table 3
  Average Log (10) Ratio: acyl-Coenzyme A oxidase 1, palmitoyl: 0.336
Hepatic genes (liver); rat liver, probe NM_021578, Rn.40136, oral gavage, experiments of Table 3
  Average Log (10) Ratio: transforming growth factor, beta 1: −0.592
Hepatic genes (liver); rat liver, probe NM_022627, Rn.15423, oral gavage, experiments of Table 3
  Average Log (10) Ratio: protein kinase, AMP-activated, beta 2 non-catalytic subunit: −0.211
Hepatic genes (liver); rat liver, probe NM_031131, Rn.24539, oral gavage, experiments of Table 3
  Average Log (10) Ratio: transforming growth factor, beta 2: 0.020
Hepatic genes (liver); rat liver, probe NM_031559, Rn.2856, oral gavage, experiments of Table 3
  Average Log (10) Ratio: carnitine palmitoyltransferase 1a, liver: 0.264
Hepatic genes (liver); rat liver, probe NM_031976, Rn.3619, oral gavage, experiments of Table 3
  Average Log (10) Ratio: protein kinase, AMP-activated, beta 1 non-catalytic subunit: −0.409
Hepatic genes (liver); rat liver, probe NM_033352, Rn.177278, oral gavage, experiments of Table 3
  Average Log (10) Ratio: ATP-binding cassette, sub-family D (ALD), member 1 (DBSS): 0.450
Hepatic genes (liver); rat liver, probe NM_053329, Rn.164865, oral gavage, experiments of Table 3
  Average Log (10) Ratio: insulin-like growth factor binding protein, acid labile subunit: −0.658
Hepatic genes (liver); rat liver, probe NM_053551, Rn.30070, oral gavage, experiments of Table 3
  Average Log (10) Ratio: pyruvate dehydrogenase kinase, isoenzyme 4: 0.442
Hepatic genes (liver); rat liver, probe NM_053923, Rn.169550, oral gavage, experiments of Table 3
  Average Log (10) Ratio: phosphatidylinositol 3-kinase, C2 domain containing, gamma polypeptide: −0.485
Hepatic genes (liver); rat liver, probe NM_053994, Rn.11126, oral gavage, experiments of Table 3
  Average Log (10) Ratio: pyruvate dehydrogenase E1 alpha 2: −0.338
Hepatic genes (liver); rat liver, probe NM_057133, Rn.10712, oral gavage, experiments of Table 3
  Average Log (10) Ratio: nuclear receptor subfamily 0, group B, member 2: 0.367
Hepatic genes (liver); rat liver, probe NM_133618, Rn.11253, oral gavage, experiments of Table 3
  Average Log (10) Ratio: hydroxyacyl-Coenzyme A dehydrogenase/3-ketoacyl-Coenzyme A thiolase/enoyl-Coenzyme A hydratase (trifunctional protein), beta subunit: 0.409
Hepatic genes (liver); rat liver, probe NM_134382, Rn.4243, oral gavage, experiments of Table 3
  Average Log (10) Ratio: ELOVL family member 5, elongation of long chain fatty acids (yeast): −0.486
Hepatic genes (liver); rat liver, probe U08027, Rn.89705, oral gavage, experiments of Table 3
  Average Log (10) Ratio: Glycerol-3-phosphate dehydrate dehydrogenase (mtGPDH) mRNA, 3′UTR: 0.635
Hepatic genes (liver); rat liver, probe U36771, Rn.44456, oral gavage, experiments of Table 3
  Average Log (10) Ratio: glycerol-3-phosphate acyltransferase, mitochondrial: −0.156
Hepatic genes (liver); rat, in vivo, po
  Average Log (10) Ratio: Cytochrome P450, family 2, subfamily b, polypeptide 2: 0.629
  Average Log (10) Ratio: cytochrome P450, family 2, subfamily b, polypeptide 13: 0.499
  Average Log (10) Ratio: cytochrome P450, family 3, subfamily a, polypeptide 13: 0.550
  Average Log (10) Ratio: cytochrome P450, family 7, subfamily a, polypeptide 1: −0.168
  Average Log (10) Ratio: cytochrome P450, family 8, subfamily b, polypeptide 1: 0.394
